The values below are quoted from earlier work in patent US11214548B2, “Cannabinoid receptor modulators” (priority 2009, dated 2022).

Read-outs that look alike come from different tables or passages of the source.

In one data set the test system is EAU. Conditions: EAU model in mice; cited from earlier work.
The subject of data set [1] is capsaicin-induced coughs. The following applies: mice; cited from earlier work.
The next data set relates to EAE. The following applies: EAE mouse model; cited from earlier work.
For a further data set, the system named is acute and chronic pain. The following applies: animal studies; cited from earlier work.
Data set [2] relates to bovine nasal cartilage explants. The following applies: bovine nasal cartilage explants in vitro; cited from earlier work.
Data set [3] concerns capsaicin-induced coughs. Conditions: guinea pigs; cited from earlier work.

Regarding `Cc1c(C(=O)c2cccc3ccccc23)c2cccc3c2n1[C@H](CN1CCOCC1)CO3` [WIN 55212-2], the neuroprotection entry in the data set with EAU is listed as “significant neuroprotection”. Moreover, the “number of capsaicin-induced coughs” value in the data set on capsaicin-induced coughs [1] is on record as “dose-dependent inhibition”. The “leukocyte rolling and adhesion in the brain” value with EAE is on record as “significantly inhibits”. For the same molecule, in the data set with acute and chronic pain, the “effect against acute and chronic pain from chemical, mechanical, and thermal pain stimuli” value is “effective”. For the same molecule, the “IL-1alpha-stimulated proteoglycan and collagen degradation” value in data set [2] was “significantly inhibit”.
Take `CCCCC/C=C\C/C=C\C/C=C\C/C=C\CCCC(=O)NCCO` [anandamide]: in the data set on acute and chronic pain, the “effect against acute and chronic pain from chemical, mechanical, and thermal pain stimuli” value is reported as “effective”. Moreover, the “number of capsaicin-induced coughs” value with capsaicin-induced coughs [3] is reported as “dose-dependent inhibition”.
